Calls of active or inactive are those of the source.
How the values were obtained:
[1] = target: T1, RNA-binding protein pos-1 (Caenorhabditis elegans, UniProt G5EF15); test: disruptors of C. elegans POS-1 RNA interaction – biochemical, fluorescence polarization, dose response (AID 1964);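 also: purified POS-1 fused to maltose binding protein made in E. coli; potency of compounds blocking POS-1 binding to fluorescent RNA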
T1 sequence (G5EF15 whole entry): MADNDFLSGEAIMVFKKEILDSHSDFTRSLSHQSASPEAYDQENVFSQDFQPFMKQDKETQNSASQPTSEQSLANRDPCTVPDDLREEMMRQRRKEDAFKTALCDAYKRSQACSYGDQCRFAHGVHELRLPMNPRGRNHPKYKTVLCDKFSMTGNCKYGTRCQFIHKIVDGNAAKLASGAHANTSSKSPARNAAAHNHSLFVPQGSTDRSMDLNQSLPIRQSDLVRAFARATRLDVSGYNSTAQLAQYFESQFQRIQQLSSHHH

Troponin, cardiac muscle [2] = target: T2, Troponin, cardiac muscle (Homo sapiens, UniProt P19429+P45379+P63316); test: Fluorescence-based biochemical high throughput dose response assay for activators of the calcium sensitivity of cardiac Regulated Thin Filaments (RTF). [Related pubchem assays (depositor defined):AID493008, AID493018, AID504382, AID504383]; assay type: protein-complex assay
[3] = acridine orange displacement from DNA – biochemical, fluorescence polarization, cherry-pick, artefact control for RAD54 inhibitor project, dose response (AID 651673); assay type: functional
Genome polyprotein = Genome polyprotein (dengue virus type 2, UniProt P29990); test: flavivirus cap methylation enzyme inhibition – biochemical, confirmation dose response, primary screen (AID 588689); assay type: functional
[4] = target: G-protein coupled receptor 55 (Homo sapiens, UniProt Q9Y2T6); test: inhibition of LPI-stimulated GPR55 beta-arrestin translocation – imaging, U2OS, beta-arrestin-GFP, LPI agonist, primary screen (AID 2013); assay type: functional;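 also: antagonist potency measured as reduced agonist-driven arrestin aggregation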
[5] = target: Kappa-type opioid receptor (Homo sapiens, UniProt P41145); assay type: functional
Jurkat = test: blockers of NF-kB activation in T cells – Jurkat, luciferase reporter, luminescence, B- and T-cell, dose response (AID 489004); assay type: functional, cell-based; settings: Homo sapiens;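 also: NF-kB luciferase reporter Jurkat cells stimulated with PMA plus ionomycin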
[6] = HEK-293T viability loss, compound-treated – cell-based, uHTS hits, cytotoxicity control for B/T-cell NF-kB inhibitor project, dose response (AID 489019); assay type: functional;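 also: IC50 reflects cytotoxicity as loss of cell viability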
[7] = reduction of Shn3 3'UTR-driven luciferase in osteoblasts – cell-based, Clone20 osteoblasts, firefly luciferase, cherry-picked, dose response (AID 624132); assay type: functional;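 also: firefly luciferase luminescence from reporter carrying the Shn3 3'UTR in osteoblasts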
[8] = loss of viability in HepG2 cells – cell-based, CellTiter-Glo, cherry-picked, cytotoxicity control for Shn3 inhibitor project, dose response (AID 624134); assay type: functional
[9] = target: T3, Tyrosine-protein phosphatase non-receptor type 7 (Homo sapiens, UniProt P35236); assay type: functional
T3 sequence (P35236 whole entry): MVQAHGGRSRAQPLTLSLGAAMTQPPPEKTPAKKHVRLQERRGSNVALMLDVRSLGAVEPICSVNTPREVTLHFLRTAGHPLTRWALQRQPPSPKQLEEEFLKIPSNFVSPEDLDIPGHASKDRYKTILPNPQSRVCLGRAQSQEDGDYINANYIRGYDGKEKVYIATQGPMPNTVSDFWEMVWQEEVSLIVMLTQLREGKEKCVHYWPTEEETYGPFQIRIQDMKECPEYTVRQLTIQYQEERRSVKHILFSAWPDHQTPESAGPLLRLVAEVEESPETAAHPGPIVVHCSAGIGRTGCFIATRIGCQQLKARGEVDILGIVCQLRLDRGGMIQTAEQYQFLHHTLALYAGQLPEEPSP

[10] = target: Voltage-gated N-type calcium channel alpha-1B subunit/Amyloid beta A4 precursor protein-binding family A member 1 (Homo sapiens, UniProt Q00975+Q02410); assay type: protein assay
[11] = target: T4, Tyrosine-protein phosphatase non-receptor type 22 (Homo sapiens, UniProt Q9Y2R2); test: PTPN22 lymphoid phosphatase activity blockers – biochemical, fluorescence intensity, uHTS (AID 1779)
T4 sequence (Q9Y2R2 whole entry): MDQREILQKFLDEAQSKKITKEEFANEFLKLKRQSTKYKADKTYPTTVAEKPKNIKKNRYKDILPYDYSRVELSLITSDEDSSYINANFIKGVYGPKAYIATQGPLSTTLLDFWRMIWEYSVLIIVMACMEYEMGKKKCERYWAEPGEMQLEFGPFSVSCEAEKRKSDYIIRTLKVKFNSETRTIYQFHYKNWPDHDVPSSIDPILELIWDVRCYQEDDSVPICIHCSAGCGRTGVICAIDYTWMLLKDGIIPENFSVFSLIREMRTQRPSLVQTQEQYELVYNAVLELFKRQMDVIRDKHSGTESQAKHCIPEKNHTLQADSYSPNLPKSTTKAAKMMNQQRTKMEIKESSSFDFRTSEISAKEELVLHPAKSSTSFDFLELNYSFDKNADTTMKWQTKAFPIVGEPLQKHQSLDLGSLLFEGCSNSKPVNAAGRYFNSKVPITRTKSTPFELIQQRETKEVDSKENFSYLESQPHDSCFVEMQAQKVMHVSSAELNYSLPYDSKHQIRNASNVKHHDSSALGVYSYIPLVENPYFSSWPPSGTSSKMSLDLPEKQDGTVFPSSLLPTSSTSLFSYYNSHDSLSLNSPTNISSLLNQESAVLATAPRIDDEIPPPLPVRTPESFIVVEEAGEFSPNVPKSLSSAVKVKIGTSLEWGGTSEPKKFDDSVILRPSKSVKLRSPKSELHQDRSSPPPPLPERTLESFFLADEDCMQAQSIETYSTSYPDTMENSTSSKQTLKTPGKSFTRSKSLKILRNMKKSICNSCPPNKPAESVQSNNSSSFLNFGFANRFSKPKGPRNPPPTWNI

[12] = target: Induced myeloid leukemia cell differentiation protein Mcl-1 (Homo sapiens, UniProt Q07820); assay type: functional
Troponin, cardiac muscle [13] = target: T2, Troponin, cardiac muscle; test: compounds desensitizing RTF to calcium – biochemical, fluorescence, cardiac regulated thin filaments, triplicate IC50, dose response (AID 504742); assay type: protein-complex assay
[14] = target: T4, Tyrosine-protein phosphatase non-receptor type 22; assay type: functional
[15] = target: Eukaryotic translation initiation factor 4E (Mus musculus, UniProt P63073); test: blockers of eIF4G binding by eIF4E – biochemical, TR-FRET, dose response (AID 855); assay type: functional;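 also: potency for disrupting eIF4E binding to eIF4GI seen as loss of FRET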
[16] = target: T5, Small ubiquitin-related modifier 1 (Homo sapiens, UniProt P63165); test: SUMO1 protein interaction blockers, potency – biochemical, fluorescence polarization, uHTS hits, dose response (AID 624382); assay type: functional; settings: read-out: IC50_Mean
[17] = target: T5, Small ubiquitin-related modifier 1; test: SUMO1 protein-protein binding blockers, potency – biochemical, FRET, dose response (AID 624383); assay type: functional; settings: read-out: IC50_Mean

T5 sequence (P63165 whole entry): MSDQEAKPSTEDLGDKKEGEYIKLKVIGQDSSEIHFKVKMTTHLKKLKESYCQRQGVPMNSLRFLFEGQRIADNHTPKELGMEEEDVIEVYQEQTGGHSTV
Chain of Eukaryotic translation initiation factor 4E (P63073 whole entry): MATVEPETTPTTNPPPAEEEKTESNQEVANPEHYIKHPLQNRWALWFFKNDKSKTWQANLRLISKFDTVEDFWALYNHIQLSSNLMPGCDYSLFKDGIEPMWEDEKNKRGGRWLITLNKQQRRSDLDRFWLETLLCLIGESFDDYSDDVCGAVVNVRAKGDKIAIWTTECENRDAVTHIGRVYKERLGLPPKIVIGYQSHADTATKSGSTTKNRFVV
Chain of Voltage-gated N-type calcium channel alpha-1B subunit/Amyloid beta A4 precursor protein-binding family A member 1 (Q00975 whole entry): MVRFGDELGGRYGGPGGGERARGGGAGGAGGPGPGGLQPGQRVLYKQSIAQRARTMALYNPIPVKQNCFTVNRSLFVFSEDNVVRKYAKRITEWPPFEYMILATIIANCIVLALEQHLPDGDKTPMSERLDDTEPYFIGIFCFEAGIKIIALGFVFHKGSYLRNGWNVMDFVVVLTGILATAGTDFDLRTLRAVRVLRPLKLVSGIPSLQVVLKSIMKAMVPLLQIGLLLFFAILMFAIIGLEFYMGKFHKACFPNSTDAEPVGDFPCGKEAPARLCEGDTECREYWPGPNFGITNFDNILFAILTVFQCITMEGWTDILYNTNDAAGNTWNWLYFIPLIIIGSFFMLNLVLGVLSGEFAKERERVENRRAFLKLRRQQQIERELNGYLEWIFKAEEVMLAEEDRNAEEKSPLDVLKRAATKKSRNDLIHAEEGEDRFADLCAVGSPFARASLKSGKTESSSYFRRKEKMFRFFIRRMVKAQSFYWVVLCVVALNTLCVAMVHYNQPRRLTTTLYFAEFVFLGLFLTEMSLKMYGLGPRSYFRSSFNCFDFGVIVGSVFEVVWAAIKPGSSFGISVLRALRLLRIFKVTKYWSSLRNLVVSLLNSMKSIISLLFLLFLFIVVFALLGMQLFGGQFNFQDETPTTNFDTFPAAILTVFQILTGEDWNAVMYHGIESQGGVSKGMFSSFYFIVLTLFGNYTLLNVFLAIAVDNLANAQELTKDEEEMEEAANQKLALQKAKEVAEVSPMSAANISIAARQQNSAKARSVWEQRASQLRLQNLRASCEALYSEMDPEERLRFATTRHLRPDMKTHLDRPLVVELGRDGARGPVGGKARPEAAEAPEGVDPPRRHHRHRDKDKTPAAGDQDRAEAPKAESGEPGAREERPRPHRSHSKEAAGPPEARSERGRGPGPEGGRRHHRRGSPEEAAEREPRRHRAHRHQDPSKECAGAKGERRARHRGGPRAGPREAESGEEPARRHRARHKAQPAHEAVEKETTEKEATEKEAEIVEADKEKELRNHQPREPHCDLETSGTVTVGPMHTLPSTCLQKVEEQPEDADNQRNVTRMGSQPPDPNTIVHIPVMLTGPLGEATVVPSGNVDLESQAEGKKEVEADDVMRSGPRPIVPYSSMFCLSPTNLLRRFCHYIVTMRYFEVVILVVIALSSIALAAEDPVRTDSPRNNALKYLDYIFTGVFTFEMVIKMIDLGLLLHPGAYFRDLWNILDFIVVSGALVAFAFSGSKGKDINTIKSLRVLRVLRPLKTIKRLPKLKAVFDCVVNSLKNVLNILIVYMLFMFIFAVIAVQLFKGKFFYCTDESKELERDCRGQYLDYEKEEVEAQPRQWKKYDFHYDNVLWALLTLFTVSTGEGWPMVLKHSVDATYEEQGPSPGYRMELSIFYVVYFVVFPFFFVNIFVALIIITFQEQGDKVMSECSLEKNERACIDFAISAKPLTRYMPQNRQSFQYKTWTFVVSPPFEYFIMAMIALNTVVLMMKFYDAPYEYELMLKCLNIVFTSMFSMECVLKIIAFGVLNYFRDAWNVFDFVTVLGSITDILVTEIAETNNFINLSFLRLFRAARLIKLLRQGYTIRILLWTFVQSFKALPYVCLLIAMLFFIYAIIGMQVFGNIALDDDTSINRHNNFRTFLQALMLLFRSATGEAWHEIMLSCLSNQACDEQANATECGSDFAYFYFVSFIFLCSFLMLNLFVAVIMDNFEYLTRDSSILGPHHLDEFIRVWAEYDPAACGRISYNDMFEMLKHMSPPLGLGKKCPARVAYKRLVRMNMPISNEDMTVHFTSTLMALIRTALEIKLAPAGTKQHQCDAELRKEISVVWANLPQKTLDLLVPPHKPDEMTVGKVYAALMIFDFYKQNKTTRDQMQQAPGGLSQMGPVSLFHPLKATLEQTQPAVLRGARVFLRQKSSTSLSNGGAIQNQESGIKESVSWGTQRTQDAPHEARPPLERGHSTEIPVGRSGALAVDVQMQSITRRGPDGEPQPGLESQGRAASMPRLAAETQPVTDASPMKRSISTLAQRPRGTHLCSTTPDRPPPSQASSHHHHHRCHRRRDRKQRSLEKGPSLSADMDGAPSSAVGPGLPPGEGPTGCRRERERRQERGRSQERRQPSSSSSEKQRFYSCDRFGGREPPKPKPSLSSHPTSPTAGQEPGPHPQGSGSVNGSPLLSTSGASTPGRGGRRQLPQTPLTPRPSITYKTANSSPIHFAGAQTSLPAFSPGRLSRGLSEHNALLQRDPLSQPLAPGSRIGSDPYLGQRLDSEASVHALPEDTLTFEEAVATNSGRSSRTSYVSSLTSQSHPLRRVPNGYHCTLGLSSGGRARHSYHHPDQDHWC
Chain of Voltage-gated N-type calcium channel alpha-1B subunit/Amyloid beta A4 precursor protein-binding family A member 1 (Q02410 whole entry): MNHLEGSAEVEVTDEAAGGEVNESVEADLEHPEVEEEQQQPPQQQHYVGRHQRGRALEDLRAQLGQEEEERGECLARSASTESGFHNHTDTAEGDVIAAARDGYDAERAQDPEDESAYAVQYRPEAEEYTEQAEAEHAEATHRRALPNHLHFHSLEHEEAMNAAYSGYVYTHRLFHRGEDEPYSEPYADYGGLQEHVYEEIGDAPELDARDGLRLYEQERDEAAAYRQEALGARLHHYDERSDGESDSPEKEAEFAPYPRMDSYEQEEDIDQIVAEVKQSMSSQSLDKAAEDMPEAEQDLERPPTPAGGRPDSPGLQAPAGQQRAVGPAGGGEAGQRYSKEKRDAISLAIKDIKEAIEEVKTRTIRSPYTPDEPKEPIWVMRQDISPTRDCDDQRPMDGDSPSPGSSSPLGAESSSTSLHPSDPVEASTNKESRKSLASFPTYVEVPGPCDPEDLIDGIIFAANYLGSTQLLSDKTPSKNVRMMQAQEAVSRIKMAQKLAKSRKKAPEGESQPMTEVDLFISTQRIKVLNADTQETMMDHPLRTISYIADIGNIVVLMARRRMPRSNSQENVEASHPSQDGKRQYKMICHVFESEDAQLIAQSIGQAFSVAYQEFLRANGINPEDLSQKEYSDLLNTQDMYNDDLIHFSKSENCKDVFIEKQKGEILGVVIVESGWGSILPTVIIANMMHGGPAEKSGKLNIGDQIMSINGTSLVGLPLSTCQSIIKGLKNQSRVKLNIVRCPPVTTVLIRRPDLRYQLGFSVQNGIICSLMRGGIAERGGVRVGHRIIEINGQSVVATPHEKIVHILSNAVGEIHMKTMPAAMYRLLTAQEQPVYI
Chain of G-protein coupled receptor 55 (Q9Y2T6 whole entry): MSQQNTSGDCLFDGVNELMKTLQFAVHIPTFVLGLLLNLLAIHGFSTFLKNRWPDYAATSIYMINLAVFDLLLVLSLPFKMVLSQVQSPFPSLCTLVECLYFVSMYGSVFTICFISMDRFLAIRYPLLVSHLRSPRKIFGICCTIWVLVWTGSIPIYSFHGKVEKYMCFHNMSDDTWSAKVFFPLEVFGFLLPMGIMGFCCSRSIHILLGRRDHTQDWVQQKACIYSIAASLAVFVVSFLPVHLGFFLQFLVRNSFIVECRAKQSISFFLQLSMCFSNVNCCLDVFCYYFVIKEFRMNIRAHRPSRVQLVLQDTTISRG
Chain of Induced myeloid leukemia cell differentiation protein Mcl-1 (Q07820 whole entry): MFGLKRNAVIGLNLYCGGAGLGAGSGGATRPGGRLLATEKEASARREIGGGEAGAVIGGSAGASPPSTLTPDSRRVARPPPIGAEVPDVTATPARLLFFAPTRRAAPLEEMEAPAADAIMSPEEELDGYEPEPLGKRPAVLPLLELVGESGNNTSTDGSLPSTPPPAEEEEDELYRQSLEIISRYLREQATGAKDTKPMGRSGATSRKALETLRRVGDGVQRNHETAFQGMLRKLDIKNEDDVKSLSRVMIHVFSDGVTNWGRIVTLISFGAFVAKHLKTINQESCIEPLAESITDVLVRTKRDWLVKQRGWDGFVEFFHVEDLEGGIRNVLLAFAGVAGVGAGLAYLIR
Chain of Genome polyprotein (P29990 2492-3391 limits assumed): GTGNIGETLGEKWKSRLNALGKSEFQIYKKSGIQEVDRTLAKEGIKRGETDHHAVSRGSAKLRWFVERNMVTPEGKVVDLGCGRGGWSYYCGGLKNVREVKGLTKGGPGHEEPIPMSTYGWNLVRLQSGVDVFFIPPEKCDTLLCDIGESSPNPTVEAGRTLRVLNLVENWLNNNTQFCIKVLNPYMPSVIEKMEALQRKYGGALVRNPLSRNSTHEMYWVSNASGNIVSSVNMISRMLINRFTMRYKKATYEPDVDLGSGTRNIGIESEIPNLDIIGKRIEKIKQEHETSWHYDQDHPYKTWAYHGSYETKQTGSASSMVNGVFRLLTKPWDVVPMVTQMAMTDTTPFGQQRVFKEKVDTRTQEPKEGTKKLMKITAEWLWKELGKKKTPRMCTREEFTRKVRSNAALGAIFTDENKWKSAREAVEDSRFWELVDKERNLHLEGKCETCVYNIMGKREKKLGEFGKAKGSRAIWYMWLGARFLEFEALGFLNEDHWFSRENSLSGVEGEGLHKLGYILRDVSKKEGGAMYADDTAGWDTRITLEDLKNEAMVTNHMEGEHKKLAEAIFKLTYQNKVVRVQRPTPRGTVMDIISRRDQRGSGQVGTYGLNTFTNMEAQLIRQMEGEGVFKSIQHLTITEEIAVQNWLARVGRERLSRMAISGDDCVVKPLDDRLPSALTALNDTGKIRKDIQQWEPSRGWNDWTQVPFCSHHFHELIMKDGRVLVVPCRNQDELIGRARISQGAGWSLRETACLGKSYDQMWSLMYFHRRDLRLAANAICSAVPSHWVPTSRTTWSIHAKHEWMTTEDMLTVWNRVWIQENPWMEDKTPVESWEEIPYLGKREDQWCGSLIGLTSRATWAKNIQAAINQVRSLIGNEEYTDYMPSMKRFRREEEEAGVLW

CCN(CC)CCN1C(=O)c2cccc3cc(N)cc(c23)C1=O
EC50 [1]: 6.62 µM (active)
EC50 (Troponin, cardiac muscle [2]): 21.3 µM (inactive)
AC50 [3]: 56.9 µM (active)

O=S(=O)(O)c1cc(Cl)cc(N=Nc2ccc(O)cc2O)c1O
IC50 (Genome polyprotein): 58.3 µM (active)

C=C1C(=O)O[C@@H]2C[C@@H](C)[C@@H]3C=CC(=O)[C@@]3(C)[C@@H](OC(=O)CC(=O)O[C@H]3[C@@H]4C(=C)C(=O)O[C@@H]4C[C@@H](C)[C@@H]4C=CC(=O)[C@]43C)[C@H]12
IC50 [4]: 1.85 µM (active)
IC50 [5]: 13.4 µM (active)
IC50 (Jurkat): 0.29 µM (active)
IC50 [6]: > 80 µM (inactive)
AC50 [7]: 0.292 µM (active)
AC50 [8]: 0.895 µM (active)

O=C(O)c1cccc(-n2cccc2/C=C2/NC(=O)N(c3ccc(Cl)cc3)C2=O)c1
IC50 [9]: 4.89 µM (active)
IC50 [10]: 12.1 µM (active)
IC50 [11]: 5.47 µM (active)
IC50 [12]: 2.69 µM (active)
IC50 (Troponin, cardiac muscle [13]): 3.45 µM (active)
IC50 [14]: 4.4 µM (active)
IC50 [15]: 4.43 µM (active)
IC50 [16]: 21.3 µM (inactive)
IC50 [17]: 17.4 µM (active)

— ChEMBL document CHEMBL1201862, “PubChem BioAssay data set” (2004)
